BindingDB's records for doi:10.1002/cbic.201600267 (Fairfield University, 2016)

Target: Beta-galactosidase (Escherichia coli (strain K12), UniProt P00722)
Assay: beta-Galactosidase Assay
Conditions: 30 °C
Description: Enzymatic activity of beta-galactosidase from Escherichia coli (1.2 x 10^-10 M) was measured using the colorimetric substrate ortho-nitrophenyl-b-galactoside ([ONPG]: 2500, 2000, 1500, 1000, 500, 250, 125 uM) in Z-Buffer (100 mM sodium phosphate at pH = 7, 10 mM KCl, 1 mM MgSO4) to which was added fresh 50 mM beta-mercaptoethanol at 30 °C. In a 96-well plate were combined a 5x stock solution of Z-buffer (containing 250 mM beta-mercaptoethanol) and 5x stock solutions of ONPG. Samples were adjusted to a final volume of 180 uL with water. Samples were equilibrated at 30 °C for 5 minutes on a Synergy H1 microplate reader. A 10x stock solution of enzyme (20 uL) was then injected into each well and the production of 2-nitrophenol was quantified at 410 nm over a period of 10 minutes.

Chain of Beta-galactosidase (P00722 whole entry): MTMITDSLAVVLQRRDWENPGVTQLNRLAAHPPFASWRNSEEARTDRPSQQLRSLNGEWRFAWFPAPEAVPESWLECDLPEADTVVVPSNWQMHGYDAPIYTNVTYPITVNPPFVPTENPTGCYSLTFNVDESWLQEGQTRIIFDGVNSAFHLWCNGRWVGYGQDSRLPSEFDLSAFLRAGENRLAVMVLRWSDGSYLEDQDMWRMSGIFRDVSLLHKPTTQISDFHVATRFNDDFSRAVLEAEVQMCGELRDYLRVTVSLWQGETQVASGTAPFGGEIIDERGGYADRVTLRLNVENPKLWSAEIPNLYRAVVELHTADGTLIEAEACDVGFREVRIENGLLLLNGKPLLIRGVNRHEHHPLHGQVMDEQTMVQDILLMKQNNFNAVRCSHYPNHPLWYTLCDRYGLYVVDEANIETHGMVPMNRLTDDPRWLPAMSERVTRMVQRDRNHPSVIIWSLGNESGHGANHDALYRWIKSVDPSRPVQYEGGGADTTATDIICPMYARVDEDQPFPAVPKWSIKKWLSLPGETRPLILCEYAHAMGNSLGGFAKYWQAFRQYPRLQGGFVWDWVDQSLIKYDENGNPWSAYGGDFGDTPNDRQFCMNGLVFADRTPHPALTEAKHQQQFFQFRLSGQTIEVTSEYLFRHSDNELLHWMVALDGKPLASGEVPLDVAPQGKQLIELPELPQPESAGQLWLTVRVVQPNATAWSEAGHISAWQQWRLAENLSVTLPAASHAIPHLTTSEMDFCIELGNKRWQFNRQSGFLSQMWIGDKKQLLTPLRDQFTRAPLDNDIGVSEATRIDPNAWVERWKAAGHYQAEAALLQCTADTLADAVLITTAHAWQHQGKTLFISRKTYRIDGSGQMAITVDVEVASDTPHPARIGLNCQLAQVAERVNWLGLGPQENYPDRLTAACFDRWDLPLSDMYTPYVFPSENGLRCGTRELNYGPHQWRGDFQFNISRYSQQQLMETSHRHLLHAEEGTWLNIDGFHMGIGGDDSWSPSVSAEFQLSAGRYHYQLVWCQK

Compound	Ki [µM]
CC(C)S[C@@H]1O[C@H](CO)[C@H](O)[C@H](O)[C@H]1O [IPTG]	76
O=C(NCCOCCOCCOCCNC(=O)c1ccc(C(=O)OCCS[C@@H]2O[C@H](CO)[C@H](O)[C@H](O)[C@H]2O)c(C(c2ccccc2)c2ccccc2)c1)c1ccc(C(=O)c2ccccc2)cc1 [β-gal inhibitor, 13]	3
O=C(NCCOCCOCCOCCNC(=O)c1ccc(C(=O)OCCOCCS[C@@H]2O[C@H](CO)[C@H](O)[C@H](O)[C@H]2O)c(C(c2ccccc2)c2ccccc2)c1)c1ccc(C(=O)c2ccccc2)cc1 [β-gal inhibitor, 14]	3.9
O=C(NCCOCCOCCOCCNC(=O)c1ccc(C(=O)OCCOCCOCCOCCS[C@@H]2O[C@H](CO)[C@H](O)[C@H](O)[C@H]2O)c(C(c2ccccc2)c2ccccc2)c1)c1ccc(C(=O)c2ccccc2)cc1 [β-gal inhibitor, 15]	5.9
